What is called EC50 is the midpoint of the concentration-response curve. The low end stands for an effect from little substance, the high end for a need for much substance. One may read the kon as a measure of how fast the partners come together. A higher kon goes with faster complex formation. A word on the Kd: it is the free concentration of one partner at which half of the binding sites on the other are occupied at equilibrium, for simple one-to-one binding.

The target in assay [1] is anti-CD28 Fab (SEQ ID NOs: 696, 697). Put plainly: anti-CD28 Fab binding to peptides, ELISA. The following applies: anti-CD28 Fab.
Assay [2] relates to anti-CD28 scFv (SEQ ID NO: 9). The assay can be described thus: Kinetic binding of anti-CD28 scFv to peptides, bio-layer interferometry (Octet RED96). The conditions noted are these: 200 nM peptide loaded. As for the experimental part:
(§1) Briefly, streptavidin biosensors were loaded with biotinylated peptides and baselined in buffer. […] After a short association period, sensors were transferred into buffer and the dissociation of bound anti-CD28 scFv was measured. The timing and steps of the experiment are shown in the accompanying table. Association and dissociation signals were recorded in real time and analyzed using a 1:1 binding model within the instrument software. Analysis using a 1:1 binding model enabled the calculation of the on and off rate constants as well as affinity, KD.
as §1, with “KD. FIGS. 70A-70F illustrate kinetic binding of anti-CD28 scFv binding to peptides as measured by Octet. FIGS. 70G-70U illustrate kinetic binding of peptides to the anti-CD28 scFv as measured by Octet.” for “KD.”

Setting [3] is: Table 34, CD28 scFv titrated 100-12.5 nM.
The mark [4] stands for this setting: Table 36, anti-CD28 scFv titrated 100-12.5 nM.

Bounds are passed on as bounds.

anti-CD28 scFv (SEQ ID NO: 9), sequence (as listed by the source): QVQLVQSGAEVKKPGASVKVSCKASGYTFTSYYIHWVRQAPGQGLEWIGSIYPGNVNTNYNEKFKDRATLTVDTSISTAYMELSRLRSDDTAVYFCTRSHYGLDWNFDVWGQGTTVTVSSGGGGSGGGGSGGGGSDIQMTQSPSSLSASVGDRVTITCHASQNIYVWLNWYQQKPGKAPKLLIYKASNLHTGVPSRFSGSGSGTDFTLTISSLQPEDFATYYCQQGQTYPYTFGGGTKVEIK
anti-CD28 Fab (SEQ ID NOs: 696, 697), sequence (as listed by the source): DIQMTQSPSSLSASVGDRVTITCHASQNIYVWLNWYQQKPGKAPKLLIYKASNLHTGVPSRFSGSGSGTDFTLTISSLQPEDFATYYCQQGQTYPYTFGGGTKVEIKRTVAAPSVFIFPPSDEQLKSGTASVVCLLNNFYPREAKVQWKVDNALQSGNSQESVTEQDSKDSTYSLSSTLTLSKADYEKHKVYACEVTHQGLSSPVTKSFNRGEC
anti-CD28 Fab (SEQ ID NOs: 696, 697), sequence (as listed by the source): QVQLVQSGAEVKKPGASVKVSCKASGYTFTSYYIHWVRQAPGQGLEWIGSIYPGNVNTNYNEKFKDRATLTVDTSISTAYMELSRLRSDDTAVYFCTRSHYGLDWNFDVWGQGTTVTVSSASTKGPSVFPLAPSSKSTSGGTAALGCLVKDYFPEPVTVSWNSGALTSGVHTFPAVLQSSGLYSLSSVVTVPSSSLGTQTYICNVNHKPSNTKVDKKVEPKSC

On to HCSGHHWLQVWKCF [Peptide-130], for which the EC50 in assay [1] (Table 26) is above 1000 nM.

In assay [1] (Table 25), LCAAGASWPWPVCL [Peptide-138] yielded a 50% effective concentration (EC50) of 13.1 nM.

In assay [1] (Table 25), LCAAGATYPWPLCL [Peptide-144] yielded an EC50 of 5.6 nM.

As for LCAAGATYPWPTCL [Peptide-147], the EC50 in assay [1] (Table 25) came to 25.8 nM.

In assay [2] (setting [3]), MDWCPRERWVDCFF [Peptide-9] registered a kdis of 0.0123 s⁻¹ and a kon of 32500 M⁻¹ s⁻¹. In assay [2] (setting [4]), this sequence came in with a Kd of 278 nM, a kdis of 0.0115 s⁻¹ and a kon of 41500 M⁻¹ s⁻¹.

In assay [2] (setting [4]), MDWCPRFMWDECFN [Peptide-45] gave a dissociation constant Kd of 134 nM, a kdis of 0.00364 s⁻¹ and a kon of 27100 M⁻¹ s⁻¹.

Consider MDWCPRHMWNYCFA [Peptide-46], for which, in assay [2] (setting [4]), the affinity, expressed as Kd, was 35.2 nM; the kdis was found to be 0.00218 s⁻¹; the kon worked out at 61900 M⁻¹ s⁻¹.

In assay [2] (setting [4]), MDWCPRSLWHECFA [Peptide-47] yielded a Kd of 51.8 nM, a kdis of 0.00201 s⁻¹ and a kon of 38900 M⁻¹ s⁻¹.

For the sequence MDWCPRYLWHVCFA [Peptide-48], in assay [2] (setting [4]), the affinity, expressed as Kd, was 21.1 nM; the kdis was 0.00187 s⁻¹; the on-rate (kon) turned out to be 88900 M⁻¹ s⁻¹.

With MDWCPVHLWSVCFA [Peptide-50], in assay [2] (setting [4]), the Kd came out at 48 nM, the kdis is 0.00443 s⁻¹ and the kon was found to be 92300 M⁻¹ s⁻¹.

In the case of MHWCPVDLWYLCYN [Peptide-49], in assay [2] (setting [4]), the Kd stood at 21.1 nM, the kdis stood at 0.00186 s⁻¹ and the kon stood at 88200 M⁻¹ s⁻¹.

In assay [2] (setting [4]), MNWCPKDIWYLCFN [Peptide-34] had a Kd of 88.8 nM, a kdis of 0.00684 s⁻¹ and a kon of 77000 M⁻¹ s⁻¹.

Sequence SCSAGAAYYWPWCL [Peptide-151] gave an EC50 in assay [1] (Table 25) of 112 nM.

Sequence SCSAGAHYPWPQCF [Peptide-148] showed an EC50 in assay [1] (Table 25) of 19 nM.

The sequence TCAAGAAWGWPLCF [Peptide-143] came in with an EC50 in assay [1] (Table 25) of 5.6 nM.

Take TCAAGAAWPWPQCL [Peptide-140]: in assay [1] (Table 25), it took 2.6 nM to reach a half-maximal effect (EC50).

In assay [1] (Table 25), TCAAGAHYPWPACL [Peptide-154] came in with an EC50 of 4.2 nM.

For the sequence TCAAGATWSWPACF [Peptide-142], a half-maximal response in assay [1] (Table 25) (EC50) required 4.5 nM.

Regarding TCAAGATYLWPTCL [Peptide-153], it took 20.5 nM to reach a half-maximal effect in assay [1] (Table 25) (EC50).

For the sequence TCSAGAAYPWPLCL [Peptide-145], in assay [1] (Table 25), it took 4.4 nM to reach a half-maximal effect (EC50).

TCSAGAAYSWPACF [Peptide-146] registered a concentration giving a half-maximal response (EC50) in assay [1] (Table 25) of 24.3 nM.

For the sequence TCSAGAHYPWPICL [Peptide-150], in assay [1] (Table 25), the EC50 is 10.6 nM.

The sequence TCSAGASYPWPLCL [Peptide-139] yielded an EC50 in assay [1] (Table 25) of 5.3 nM.

Take TCSAGATWAWPLCF [Peptide-152]: a half-maximal response in assay [1] (Table 25) (EC50) required 15.6 nM.

Turning to TCSAGATWPWPICL [Peptide-137], in assay [1] (Table 25), the EC50 amounted to 2.1 nM.

In turn, TCSAGATYEWPRCL [Peptide-149] returned an EC50 in assay [1] (Table 25) of 12.8 nM.

With TCSAGATYTWPKCF [Peptide-141], it took 15.7 nM to reach a half-maximal effect in assay [1] (Table 25) (EC50).

For YCEGHAPEYIGKCL [Peptide-136], in assay [1] (Table 26), the EC50 amounted to 44.9 nM.

In assay [1] (Table 26), YCEGHAPEYIRKCL [Peptide-122] gave an EC50 of 7.8 nM.

Consider YCEGHAPEYIWKCL [Peptide-123], for which the EC50 in assay [1] (Table 26) turned out to be 8.1 nM.

Sequence YCEGHEGIYFWKCL [Peptide-119] had an EC50 in assay [1] (Table 26) of 128 nM.

In the case of YCEGHLPEYLEKCV [Peptide-133], in assay [1] (Table 26), the EC50 stood at 32.5 nM.

YCEGHLPEYLGKCL [Peptide-125] returned a 50% effective concentration (EC50) in assay [1] (Table 26) of 12.1 nM.

In assay [1] (Table 26), YCEGHRPEYILKCL [Peptide-118] yielded an EC50 of 65.8 nM.

The sequence YCEGHSPEYILKCL [Peptide-117] registered an EC50 in assay [1] (Table 26) of 11 nM.

For YCEGHSQENIWKCL [Peptide-124], the EC50 in assay [1] (Table 26) amounted to 28.1 nM.

With YCEGHSQEYLWKCL [Peptide-128], the EC50 in assay [1] (Table 26) stood at 59.4 nM.

In turn, YCEGHSSEYIQKCL [Peptide-129] registered an EC50 in assay [1] (Table 26) of 30.5 nM.

In assay [1] (Table 26), YCWSHSPPFIKKCY [Peptide-131] gave a concentration giving a half-maximal response (EC50) above 1000 nM.

Source of the values: patent publication US20260242478A1, “ANTIBODIES FOR TARGETING PSMA AND CD28 AND USES THEREOF” (Janux Therapeutics, Inc., priority 2023, published 2026).
